Test results from ChEMBL document CHEMBL5678816, “A Next-Generation TRK Kinase Inhibitor Overcomes Acquired Resistance to Prior TRK Kinase Inhibition in Patients with TRK Fusion-Positive Solid Tumors” (Cancer Discov, 2017).
Activity calls are given as the source filed them. The rule behind the calls is not given here.

How the values were obtained:
[1] = Clearance in mouse at 1 mg/kg, iv administered as 20% hydroxypropyl-beta-cyclodextrin formulation by LC-MS analysis; assay type: ADME, organism-based; details: in vivo
[2] = molecular target: Serine/threonine-protein kinase 3 (Homo sapiens) (UniProt Q13188); experiment: Inhibition of MST2 (unknown origin) at 1 uM in presence of ATP relative to control; values are per cent of control
[3] = AUC in pediatric patient with recurrent ETV6-NTRK3-rearranged infantile fibrosarcoma at 60 mg administered twice a day as liquid formulation for 8 day by LC-MS/MS analysis; assay type: ADME; details: human, in vivo
[4] = molecular target: Dual specificity mitogen-activated protein kinase kinase 6 (Homo sapiens) (UniProt P52564); experiment: Inhibition of MKK6 (unknown origin) at 1 uM in presence of ATP relative to control; values are per cent of control
[5] = molecular target: Serine/threonine-protein kinase D2 (Homo sapiens) (UniProt Q9BZL6); experiment: Inhibition of PKD2 (unknown origin) at 1 uM in presence of ATP relative to control; values are per cent of control
[6] = molecular target: Cytoplasmic tyrosine-protein kinase BMX (Homo sapiens) (UniProt P51813); experiment: Inhibition of Bmx (unknown origin) at 1 uM in presence of ATP relative to control
[7] = molecular target: Serine/threonine-protein kinase TAO2 (Homo sapiens) (UniProt Q9UL54); experiment: Inhibition of TAO2 (unknown origin) at 1 uM in presence of ATP relative to control; values are per cent of control
[8] = molecular target: Homeodomain-interacting protein kinase 3 (Homo sapiens) (UniProt Q9H422); experiment: Inhibition of HIPK3 (unknown origin) at 1 uM in presence of ATP relative to control; values are per cent of control
[9] = molecular target: Calcium/calmodulin-dependent protein kinase type IV (Homo sapiens) (UniProt Q16566); experiment: Inhibition of CAMK4 (unknown origin) at 1 uM in presence of ATP relative to control; values are per cent of control
[10] = molecular target: Serine/threonine-protein kinase 17A (Homo sapiens) (UniProt Q9UEE5); experiment: Inhibition of DRAK1 (unknown origin) at 1 uM in presence of ATP relative to control; values are per cent of control
[11] = molecular target: Calcium/calmodulin-dependent protein kinase type II subunit delta (Homo sapiens) (UniProt Q13557); experiment: Inhibition of CAMK2d (unknown origin) at 1 uM in presence of ATP relative to control; values are per cent of control
[12] = Cmax in adult patient with recurrent LMNA-NTRK1 rearranged colorectal cancer at 100 mg administered twice a day as powder-in-capsule or liquid formulation for 15 days by LC-MS/MS analysis; assay type: ADME; details: human, in vivo, po, time 15 day
[13] = molecular target: Casein kinase I isoform gamma-3 (Homo sapiens) (UniProt Q9Y6M4); experiment: Inhibition of CK1gamma3 (unknown origin) at 1 uM in presence of ATP relative to control; values are per cent of control
[14] = molecular target: Tyrosine-protein kinase ABL2 (Homo sapiens) (UniProt P42684); experiment: Inhibition of Abl2 (unknown origin) at 1 uM in presence of ATP relative to control; values are per cent of control
[15] = molecular target: Cyclin-dependent kinase 1/cyclin B1 (Homo sapiens) (UniProt P06493+P14635); experiment: Inhibition of CDK1/cyclinB (unknown origin) at 1 uM in presence of ATP relative to control; values are per cent of control
[16] = molecular target: Protein kinase C theta type (Homo sapiens) (UniProt Q04759); experiment: Inhibition of PKCtheta (unknown origin) at 1 uM in presence of ATP relative to control; values are per cent of control
[17] = Cmin in adult patient with recurrent LMNA-NTRK1 rearranged colorectal cancer at 50 mg administered twice a day as powder-in-capsule or liquid formulation for 1 day and measured 10 hrs post dose by LC-MS/MS analysis; assay type: ADME; details: human, in vivo, po, read-out: Cmin
NCI-H441 = experiment: Inhibition of cell proliferation in human NCI-H441 cells upto 10 umol/L incubated for 72 hrs by DAPI staining based analysis; assay type: functional; details: dose <= 10.0 µmol/L
[18] = molecular target: Proto-oncogene tyrosine-protein kinase receptor Ret (Homo sapiens) (UniProt P07949); experiment: Inhibition of Ret (unknown origin) at 1 uM in presence of ATP relative to control; values are per cent of control
Homo sapiens = organism: Homo sapiens; experiment: Inhibition of CK1_y (unknown origin) at 1 uM in presence of ATP relative to control; values are per cent of control
[19] = molecular target: Dual specificity protein kinase CLK3 (Homo sapiens) (UniProt P49761); experiment: Inhibition of CLK3 (unknown origin) at 1 uM in presence of ATP relative to control; values are per cent of control
[20] = molecular target: Myosin light chain kinase, smooth muscle (Homo sapiens) (UniProt Q15746); experiment: Inhibition of MYLK (unknown origin) at 1 uM in presence of ATP relative to control; values are per cent of control
MV4-11 = experiment: Inhibition of cell proliferation in human MV4-11 cells upto 10 umol/L incubated for 72 hrs by DAPI staining based analysis; assay type: functional; details: dose <= 10.0 µmol/L
DBTRG-05MG = experiment: Inhibition of cell proliferation in human DBTRG-05MG cells upto 10 umol/L incubated for 72 hrs by DAPI staining based analysis; assay type: functional; details: dose <= 10.0 µmol/L
[21] = molecular target: Protein kinase C delta type (Homo sapiens) (UniProt Q05655); experiment: Inhibition of PKCdelta (unknown origin) at 1 uM in presence of ATP relative to control; values are per cent of control
[22] = molecular target: Mitogen-activated protein kinase 1 (Homo sapiens) (UniProt P28482); experiment: Inhibition of ERK2 (unknown origin) at 1 uM in presence of ATP relative to control; values are per cent of control
[23] = Oral bioavailability in rat at 10 mg/kg administered as 1% carboxymethylcellulose 0.5% Tween 80 formulation by LC-MS analysis; assay type: ADME, organism-based; details: in vivo
NIH3T3 = experiment: In vivo inhibition of […] in nu/nu NCr mouse implanted with mouse NIH3T3 cells harboring extracellular domain deleted […] assessed as reduction in […] phosphorylation at 60 mg/kg, po administered once daily for 3 days and measured after 2 hrs post last dose by ELISA; assay type: functional, organism-based; details: time 3.0 day

Cyclin-dependent kinase 1/cyclin B1 (Homo sapiens), sequence (P06493 whole entry, looked up): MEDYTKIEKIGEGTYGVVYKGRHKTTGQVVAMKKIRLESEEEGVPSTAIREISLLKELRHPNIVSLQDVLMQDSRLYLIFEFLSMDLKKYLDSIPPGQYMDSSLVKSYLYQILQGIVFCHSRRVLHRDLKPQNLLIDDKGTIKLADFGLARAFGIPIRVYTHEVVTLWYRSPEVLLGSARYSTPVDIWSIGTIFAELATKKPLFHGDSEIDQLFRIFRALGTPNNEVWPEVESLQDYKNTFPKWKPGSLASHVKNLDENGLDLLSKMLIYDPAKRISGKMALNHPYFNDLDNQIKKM
Cyclin-dependent kinase 1/cyclin B1 (Homo sapiens), sequence (P14635 whole entry, looked up): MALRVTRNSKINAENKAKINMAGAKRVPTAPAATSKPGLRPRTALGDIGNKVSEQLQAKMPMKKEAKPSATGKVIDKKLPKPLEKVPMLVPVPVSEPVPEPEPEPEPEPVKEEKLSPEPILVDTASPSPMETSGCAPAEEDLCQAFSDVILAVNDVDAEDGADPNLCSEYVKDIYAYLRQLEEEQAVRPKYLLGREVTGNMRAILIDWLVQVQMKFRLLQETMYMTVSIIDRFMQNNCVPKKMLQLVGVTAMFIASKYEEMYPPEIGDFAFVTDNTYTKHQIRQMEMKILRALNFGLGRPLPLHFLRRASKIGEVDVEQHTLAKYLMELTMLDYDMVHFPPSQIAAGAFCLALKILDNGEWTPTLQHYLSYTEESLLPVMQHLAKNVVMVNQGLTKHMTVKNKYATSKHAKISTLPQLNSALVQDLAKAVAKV
Serine/threonine-protein kinase TAO2 (Homo sapiens), sequence (Q9UL54 whole entry): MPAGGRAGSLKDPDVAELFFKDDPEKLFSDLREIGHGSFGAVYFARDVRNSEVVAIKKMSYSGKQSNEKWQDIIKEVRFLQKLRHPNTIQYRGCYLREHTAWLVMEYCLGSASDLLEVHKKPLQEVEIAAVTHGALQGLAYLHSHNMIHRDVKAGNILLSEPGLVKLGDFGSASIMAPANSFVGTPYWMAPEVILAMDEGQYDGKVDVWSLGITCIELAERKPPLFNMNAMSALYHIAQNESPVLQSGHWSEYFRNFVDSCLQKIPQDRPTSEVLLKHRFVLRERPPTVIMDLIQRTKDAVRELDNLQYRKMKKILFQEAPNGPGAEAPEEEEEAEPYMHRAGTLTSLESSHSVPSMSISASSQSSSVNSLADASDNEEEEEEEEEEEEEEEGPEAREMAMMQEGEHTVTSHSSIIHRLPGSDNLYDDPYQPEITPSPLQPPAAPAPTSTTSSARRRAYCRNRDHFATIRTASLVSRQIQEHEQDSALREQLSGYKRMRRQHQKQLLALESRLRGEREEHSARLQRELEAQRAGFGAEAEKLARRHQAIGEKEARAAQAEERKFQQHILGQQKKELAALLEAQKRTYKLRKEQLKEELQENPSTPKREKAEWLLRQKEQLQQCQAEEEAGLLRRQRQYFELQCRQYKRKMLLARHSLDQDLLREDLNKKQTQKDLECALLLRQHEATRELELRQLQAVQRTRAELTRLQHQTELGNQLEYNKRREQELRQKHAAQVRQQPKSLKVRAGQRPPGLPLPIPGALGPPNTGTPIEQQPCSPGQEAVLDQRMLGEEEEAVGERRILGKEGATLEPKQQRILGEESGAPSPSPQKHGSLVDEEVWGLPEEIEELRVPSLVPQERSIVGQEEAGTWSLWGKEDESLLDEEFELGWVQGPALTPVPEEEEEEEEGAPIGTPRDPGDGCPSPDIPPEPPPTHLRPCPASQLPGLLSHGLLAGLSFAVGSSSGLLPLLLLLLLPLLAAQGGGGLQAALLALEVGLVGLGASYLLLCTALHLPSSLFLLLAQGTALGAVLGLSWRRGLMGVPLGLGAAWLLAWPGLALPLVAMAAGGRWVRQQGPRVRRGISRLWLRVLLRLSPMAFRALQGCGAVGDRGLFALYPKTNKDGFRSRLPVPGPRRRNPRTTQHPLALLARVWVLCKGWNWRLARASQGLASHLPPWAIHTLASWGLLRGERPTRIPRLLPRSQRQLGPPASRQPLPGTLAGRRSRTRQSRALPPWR
Homeodomain-interacting protein kinase 3 (Homo sapiens), sequence (Q9H422 whole entry, looked up): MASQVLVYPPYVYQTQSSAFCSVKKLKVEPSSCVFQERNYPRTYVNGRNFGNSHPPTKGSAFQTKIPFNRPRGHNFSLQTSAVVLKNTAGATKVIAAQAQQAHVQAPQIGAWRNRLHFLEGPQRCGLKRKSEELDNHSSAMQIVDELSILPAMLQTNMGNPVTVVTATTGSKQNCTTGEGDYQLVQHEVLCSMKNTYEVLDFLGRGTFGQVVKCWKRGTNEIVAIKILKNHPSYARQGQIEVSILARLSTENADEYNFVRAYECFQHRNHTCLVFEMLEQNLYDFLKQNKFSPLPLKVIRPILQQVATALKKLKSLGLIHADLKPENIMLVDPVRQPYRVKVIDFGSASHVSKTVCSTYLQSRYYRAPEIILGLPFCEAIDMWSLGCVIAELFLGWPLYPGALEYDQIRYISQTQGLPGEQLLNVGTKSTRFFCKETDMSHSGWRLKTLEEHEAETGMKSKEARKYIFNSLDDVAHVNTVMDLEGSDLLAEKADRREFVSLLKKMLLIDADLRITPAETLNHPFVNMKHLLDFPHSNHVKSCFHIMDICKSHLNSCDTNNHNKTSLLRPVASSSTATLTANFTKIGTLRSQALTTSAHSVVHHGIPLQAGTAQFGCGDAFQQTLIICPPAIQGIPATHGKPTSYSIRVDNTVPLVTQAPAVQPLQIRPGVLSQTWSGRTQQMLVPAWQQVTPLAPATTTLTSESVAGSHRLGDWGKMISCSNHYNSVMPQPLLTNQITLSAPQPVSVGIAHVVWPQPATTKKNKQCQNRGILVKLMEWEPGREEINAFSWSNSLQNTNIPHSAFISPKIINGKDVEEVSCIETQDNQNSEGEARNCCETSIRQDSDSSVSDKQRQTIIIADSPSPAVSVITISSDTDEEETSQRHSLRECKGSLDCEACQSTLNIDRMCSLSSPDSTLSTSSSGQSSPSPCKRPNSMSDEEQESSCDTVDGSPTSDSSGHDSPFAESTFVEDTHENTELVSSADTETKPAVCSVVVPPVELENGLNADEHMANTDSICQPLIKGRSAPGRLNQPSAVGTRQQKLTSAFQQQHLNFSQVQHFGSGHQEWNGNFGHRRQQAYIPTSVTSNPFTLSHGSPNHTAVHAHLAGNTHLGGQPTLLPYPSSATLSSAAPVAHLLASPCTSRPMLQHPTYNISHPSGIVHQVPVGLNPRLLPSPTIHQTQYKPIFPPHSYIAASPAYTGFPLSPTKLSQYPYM
Calcium/calmodulin-dependent protein kinase type II subunit delta (Homo sapiens), sequence (Q13557 whole entry): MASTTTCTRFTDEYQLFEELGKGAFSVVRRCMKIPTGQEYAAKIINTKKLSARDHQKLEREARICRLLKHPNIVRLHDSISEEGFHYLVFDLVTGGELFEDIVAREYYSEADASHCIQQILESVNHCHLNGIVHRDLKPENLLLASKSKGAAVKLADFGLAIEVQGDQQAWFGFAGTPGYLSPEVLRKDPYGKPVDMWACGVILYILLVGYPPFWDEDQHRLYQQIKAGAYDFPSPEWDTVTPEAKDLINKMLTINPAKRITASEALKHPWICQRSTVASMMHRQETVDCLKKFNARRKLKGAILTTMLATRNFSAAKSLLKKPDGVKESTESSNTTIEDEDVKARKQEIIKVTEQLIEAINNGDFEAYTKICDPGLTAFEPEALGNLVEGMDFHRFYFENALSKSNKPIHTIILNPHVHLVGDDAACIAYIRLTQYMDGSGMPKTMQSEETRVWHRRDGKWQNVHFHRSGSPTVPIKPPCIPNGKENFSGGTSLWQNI
Tyrosine-protein kinase ABL2 (Homo sapiens), sequence (P42684 whole entry): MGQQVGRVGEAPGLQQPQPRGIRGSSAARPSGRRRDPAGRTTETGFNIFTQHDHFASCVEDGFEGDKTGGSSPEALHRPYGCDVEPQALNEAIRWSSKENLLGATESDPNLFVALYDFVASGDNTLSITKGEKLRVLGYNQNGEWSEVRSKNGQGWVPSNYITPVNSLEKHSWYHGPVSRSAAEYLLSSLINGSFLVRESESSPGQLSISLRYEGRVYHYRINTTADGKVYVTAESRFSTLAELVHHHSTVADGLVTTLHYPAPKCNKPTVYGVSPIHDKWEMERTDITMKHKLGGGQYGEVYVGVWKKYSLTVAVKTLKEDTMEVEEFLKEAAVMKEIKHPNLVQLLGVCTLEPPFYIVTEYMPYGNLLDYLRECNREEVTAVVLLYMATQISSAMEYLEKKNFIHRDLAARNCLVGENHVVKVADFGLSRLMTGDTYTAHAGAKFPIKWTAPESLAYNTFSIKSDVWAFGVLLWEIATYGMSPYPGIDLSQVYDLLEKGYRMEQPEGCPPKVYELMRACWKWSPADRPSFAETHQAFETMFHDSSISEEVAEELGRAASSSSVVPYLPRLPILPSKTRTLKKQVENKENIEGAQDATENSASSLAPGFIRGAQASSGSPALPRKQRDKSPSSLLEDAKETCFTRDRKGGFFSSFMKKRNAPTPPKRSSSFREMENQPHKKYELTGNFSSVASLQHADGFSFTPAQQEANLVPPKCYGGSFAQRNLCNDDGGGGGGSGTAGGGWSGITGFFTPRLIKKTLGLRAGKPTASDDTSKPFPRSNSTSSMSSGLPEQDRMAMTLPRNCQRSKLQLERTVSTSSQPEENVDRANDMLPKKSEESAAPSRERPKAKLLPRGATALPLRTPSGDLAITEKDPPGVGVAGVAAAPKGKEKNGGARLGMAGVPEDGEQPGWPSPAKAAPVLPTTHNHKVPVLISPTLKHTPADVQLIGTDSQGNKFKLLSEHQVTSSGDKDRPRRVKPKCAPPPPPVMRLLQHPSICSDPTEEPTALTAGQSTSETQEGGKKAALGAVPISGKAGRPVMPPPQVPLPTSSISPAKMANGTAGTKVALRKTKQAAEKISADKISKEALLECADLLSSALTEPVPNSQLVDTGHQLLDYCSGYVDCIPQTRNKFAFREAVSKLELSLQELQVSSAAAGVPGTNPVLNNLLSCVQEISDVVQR

**Q.** Which clearance [1] does the source give for `C[C@@H]1CCc2ncc(F)cc2[C@H]2CCCN2c2ccn3ncc(c3n2)C(=O)N1` [SELITRECTINIB] here?
**A.** 4.83 mL/min/kg

**Q.** And the residual activity [2]?
**A.** 112%

**Q.** And the AUC at 192 h [3]?
**A.** 2010 ng·h/mL

**Q.** And the residual activity [4]?
**A.** 100%

**Q.** What about the residual activity [5] of the same molecule?
**A.** 110%

**Q.** What about the inhibition [6] of the same molecule?
**A.** 15%

**Q.** And the residual activity [7]?
**A.** 104%

**Q.** What about the residual activity [8] of the same molecule?
**A.** 105%

**Q.** And the residual activity [9]?
**A.** 118%

**Q.** What about the residual activity [10] of the same molecule?
**A.** 113%

**Q.** What about the residual activity [11] of the same molecule?
**A.** 100%

**Q.** And the Cmax [12]?
**A.** 673 ng/mL

**Q.** What about the residual activity [13] of the same molecule?
**A.** 113%

**Q.** And the residual activity [14]?
**A.** 105%

**Q.** And the residual activity [15]?
**A.** 102%

**Q.** What about the residual activity [16] of the same molecule?
**A.** 108%

**Q.** What about the concentration at 34 h [17] of the same molecule?
**A.** 1.86 ng/mL

**Q.** And the inhibition (NCI-H441)?
**A.** inactive

**Q.** And the residual activity [18]?
**A.** 80.5%

**Q.** And the residual activity (Homo sapiens)?
**A.** 114%

**Q.** What about the residual activity [19] of the same molecule?
**A.** 104%

**Q.** And the residual activity [20]?
**A.** 109%

**Q.** And the inhibition (MV4-11)?
**A.** inactive

**Q.** What about the inhibition (DBTRG-05MG) of the same molecule?
**A.** inactive

**Q.** And the residual activity [21]?
**A.** 108%

**Q.** And the residual activity [22]?
**A.** 105%

**Q.** And the bioavailability [23]?
**A.** 24%

**Q.** What about the inhibition (NIH3T3) of the same molecule?
**A.** Active
